For assay [1], the target named is T1, human cloned dopamine D4.2 receptors (Homo sapiens, UniProt P21917, DEL265-296).
T1 construct: expressed in transfected cells; host or cells: CHO cells
T1 sequence (P21917 with tags, fused parts or gaps DEL265-296): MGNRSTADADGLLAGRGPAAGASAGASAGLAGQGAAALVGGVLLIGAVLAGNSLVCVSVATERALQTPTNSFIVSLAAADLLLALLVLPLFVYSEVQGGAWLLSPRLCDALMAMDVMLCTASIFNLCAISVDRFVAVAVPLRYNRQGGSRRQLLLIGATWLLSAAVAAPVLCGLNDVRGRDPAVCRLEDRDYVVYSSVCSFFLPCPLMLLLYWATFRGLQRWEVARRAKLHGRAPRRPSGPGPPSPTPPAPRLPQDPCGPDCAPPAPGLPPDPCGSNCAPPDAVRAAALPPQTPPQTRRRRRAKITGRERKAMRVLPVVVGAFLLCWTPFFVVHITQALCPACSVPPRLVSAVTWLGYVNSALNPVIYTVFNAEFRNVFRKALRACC
Description: Inhibition of the binding of 3H-YM-09151-2 to human dopamine D4 receptors. The note with it: human cloned dopamine D4.2 receptors in CHO-cells; for inhibition at 0.05 µM: at 50 nM. On the procedure: The compounds of the invention have also been tested for their affinity to dopamine D4 receptors in the following test.
Inhibition of the Binding of ^3H-YM-09151-2 to Human Dopamine D4 Receptors
By this method the inhibition by drugs of the binding of [^3H]YM-09151-2 (0.06 nM) to membranes of human cloned dopamine D4.2 receptors expressed in CHO-cells is determined in vitro. Method modified from NEN Life Science Products, Inc., technical data certificate PC2533-10/96.

The target in assay [2] is T2, cloned human 5-HT1A receptors (Homo sapiens, UniProt P08908).
T2 construct: expressed in transfected cells; host or cells: HeLa cells (HA7)
T2 sequence (P08908 1-422): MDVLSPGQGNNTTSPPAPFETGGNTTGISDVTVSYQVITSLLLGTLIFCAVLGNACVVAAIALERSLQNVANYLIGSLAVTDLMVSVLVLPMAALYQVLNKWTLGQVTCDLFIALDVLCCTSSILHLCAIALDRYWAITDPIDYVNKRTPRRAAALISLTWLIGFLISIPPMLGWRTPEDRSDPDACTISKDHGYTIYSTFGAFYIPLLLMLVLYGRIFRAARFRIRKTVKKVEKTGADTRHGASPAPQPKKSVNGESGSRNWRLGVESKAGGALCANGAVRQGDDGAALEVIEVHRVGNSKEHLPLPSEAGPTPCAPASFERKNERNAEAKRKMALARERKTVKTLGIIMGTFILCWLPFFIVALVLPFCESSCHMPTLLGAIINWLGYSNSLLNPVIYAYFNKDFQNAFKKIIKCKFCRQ
As to the kind of experiment: Inhibition of 3H-5-CT binding to human 5-HT1A receptors. The following applies: cloned human 5-HT1A receptors in HeLa cells (HA7); for inhibition at 0.1 µM: at 100 nM. As for the experimental part: The affinity of the compounds of the invention to 5-HT1A receptors was determined by measuring the inhibition of binding of a radioactive ligand at 5-HT1A receptors as described in the following test:
Inhibition of ^3H-5-CT Binding to Human 5-HT1A Receptors
By this method the inhibition by drugs of the binding of the 5-HT1A agonist ^3H-5-carboxamido tryptamine (3H-5-CT) to cloned human 5-HT1A receptors stably expressed in transfected HeLa cells (HA7) (Fargin, A. et al, J. Biol. Chem., 1989, 264, 14848) is determined in vitro. The assay was performed as a modification of the method described by Harrington, M. A. et at, J. Pharmacol. Exp. Ther., 1994, 268, 1098. Human 5-HT1A receptors (40 μg of cell homogenate) were incubated for 15 minutes at 37° C. in 50 mM Tris buffer at pH 7.7 in the presence of ^3H-5-CT. Non-specific binding was determined by including 10 μM of metergoline. The reaction was terminated by rapid filtration through Unifilter GF/B filters on a Tomtec Cell Harvester. Filters were counted in a Packard Top Counter.

This note sets out measurements from patent US20030050306A1, “Novel heteroaryl derivatives, their preparation and use” (H. Lundbeck A/S, priority 1999, published 2003).

For the compound `Cc1ccccc1SCCCCN1CCN(c2cccc3c2OCCO3)CC1` [Compound 7bc, 1-(2,3-Dihydro-benzo[1,4]dioxin-5-yl)-4-(4-o-tolylsulfanyl-butyl)-piperazine], the inhibition (commonly the relative decrease from the control value, in per cent) at 0.05 µM in assay [1] amounted to 96%. Besides, the inhibition at 0.1 µM in assay [2] is 82%.
For the compound `Fc1cc(Br)c(OCCCCN2CCN(c3cccc4c3OCCO4)CC2)c(Br)c1` [Compound 5by], the half-inhibitory concentration (IC50) (as a rule, the point on the concentration scale where inhibition reaches its midpoint) stood at 4.3 nM in assay [1] and 2.5 nM in assay [2].
For the compound `Clc1ccccc1SCCCN1CCN(c2cccc3ccsc23)CC1` [Compound 5ce, 1-Benzo[b]thiophen-7-yl-4-[3-(2-chloro-phenylsulfanyl)-propyl]-piperazine], the IC50 turned out to be 16 nM in assay [1] and 4.8 nM in assay [2].
For `Fc1cc(Br)cc(F)c1OCCCCN1CCN(c2cccc3c2OCCO3)CC1` [Compound 5bz, 1-[4-(4-Bromo-2,6-difluoro-phenoxy)-butyl]-4-(2,3-dihydro-benzo[1,4]dioxin-5-yl)-piperazine], the IC50 in assay [1] turned out to be 10 nM; in assay [2], 5 nM.
For `C=CCc1ccccc1OCCCCN1CCN(c2cccc3c2OCCO3)CC1` [Compound 7bp, 1-[4-(2-Allyl-phenoxy)-butyl]-4-(2,3-dihydro-benzo[1,4]dioxin-5-yl)-piperazine], the inhibition at 0.05 µM in assay [1] turned out to be 99%. The inhibition at 0.1 µM in assay [2] came to 92%.
Consider `Cc1cccc(C)c1SCCCCN1CCN(c2cccc3c2OCCO3)CC1` [Compound 7ac, 1-(2,3-Dihydro-benzo[1,4]dioxin-5-yl)-4-[4-(2,6-dimethyl-phenylsulfanyl)-butyl]-piperazine], for which the inhibition at 0.05 µM in assay [1] is 96%. Besides, the inhibition at 0.1 µM in assay [2] worked out at 96%.
Take `N#Cc1ccccc1OCCCN1CCN(c2cccc3c2OCCO3)CC1` [Compound 2d, 2-{3-[4-(2,3-Dihydro-benzo[1,4]dioxin-5-yl)-piperazin-1-yl]-propoxy}-benzonitrile]: the figures for the IC50 in assay [1] and in assay [2] were 1.7 nM and 15 nM, respectively.
The corresponding values for `N#Cc1ccc(N2CCN(CCCOc3ccc(F)cc3Br)CC2)c2c1OCCO2` [Compound 6b, 8-{4-[3-(2-Bromo-4-fluoro-phenoxy)-propyl]-piperazin-1-yl}-2,3-dihydro-benzo[1,4]dioxine-5-carbonitrile] are 10 nM and 230 nM.
`Cc1cccc(Cl)c1SCCCCN1CCN(c2cc(Cl)cc3c2OCC3(C)C)CC1` [Compound 5ay, 1-(5-Chloro-3,3-dimethyl-2,3-dihydro-benzofuran-7-yl)-4-[4-(2-chloro-6-methyl-phenylsulfanyl)-butyl]-piperazine]: the IC50 in assay [1] was found to be 12 nM. Further, the inhibition at 0.1 µM in assay [2] was found to be 14%.
Consider `COc1ccccc1SCCCCN1CCN(c2cccc3c2OCCO3)CC1` [Compound 7bm, 1-(2,3-Dihydro-benzo[1,4]dioxin-5-yl)-4-[4-(2-methoxy-phenylsulfanyl)-butyl]-piperazine], for which the inhibition at 0.05 µM in assay [1] came out at 83%. Further, the inhibition at 0.1 µM in assay [2] was determined as 95%.
For `CC1(C)Cc2cc(Cl)cc(N3CCN(CCCOc4c(Cl)cc(F)cc4Cl)CC3)c2O1` [Compound 5bk, 1-(5-Chloro-2,2-dimethyl-2,3-dihydro-benzofuran-7-yl)-4-[3-(2,6-dichloro-4-fluoro-phenoxy)-propyl]-piperazine], the half-maximal inhibitory concentration (IC50) in assay [1] was found to be 11 nM; in assay [2], 22 nM.
`Fc1cc(Cl)c(OCCCN2CCN(c3cccc4c3OCCO4)CC2)c(Cl)c1` [Compound 5at, 1-[3-(2,6-Dichloro-4-fluoro-phenoxy)-propyl]-4-(2,3-dihydro-benzo[1,4]dioxin-5-yl)-piperazine]: the values for the IC50 in assay [1] and in assay [2] were 3.4 nM and 2.2 nM, respectively.
The corresponding values for `Fc1ccc(OCCCN2CCN(c3cccc4c3OCCO4)CC2)c(F)c1` [Compound 5cf, 1-[3-(2,4-Difluoro-phenoxy)-propyl]-4-(2,3-dihydro-benzo[1,4]dioxin-5-yl)-piperazine] are 1.4 nM and 4.9 nM.
On to `Fc1ccc(OCCCN2CCN(c3cccc4ccsc34)CC2)c(F)c1` [Compound 5ci, 1-Benzo[b]thiophen-7-yl-4-[3-(2,4-difluoro-phenoxy)-propyl]-piperazine], for which the figures for the IC50 in assay [1] and in assay [2] were 2 nM and 3.5 nM, respectively.
As to `N#Cc1ccc(N2CCN(CCCOc3c(Cl)cccc3Cl)CC2)c2c1OCCO2` [Compound 5cl, 8-{4-[3-(2,6-Dichloro-phenoxy)-propyl]-piperazin-1-yl}-2,3-dihydro-benzo[1,4]dioxine-5-carbonitrile], the inhibition at 0.05 µM in assay [1] amounted to 42%. For the same compound, the inhibition at 0.1 µM in assay [2] turned out to be 83%.
The corresponding values for `FC(F)(F)Oc1ccc(SCCCN2CCN(c3cccc4c3OCCO4)CC2)cc1` [Compound 7bj, 1-(2,3-Dihydro-benzo[1,4]dioxin-5-yl)-4-[3-(4-trifluoromethoxy-phenylsulfanyl)-propyl]-piperazine] are 92% and 106%.
`Clc1ccccc1SCCCN1CCN(c2cccc3c2OCCO3)CC1` [Compound 5cd, 1-[3-(2-Chloro-phenylsulfanyl)-propyl]-4-(2,3-dihydro-benzo[1,4]dioxin-5-yl)-piperazine]: the figures for the IC50 in assay [1] and in assay [2] were 2.3 nM and 8.8 nM, respectively.
With `Cc1cccc(SCCCN2CCN(c3cccc4c3OCCO4)CC2)c1` [Compound 7aq, 1-(2,3-Dihydro-benzo[1,4]dioxin-5-yl)-4-(3-m-tolylsulfanyl-propyl)-piperazine], the inhibition at 0.05 µM in assay [1] was 82%. In addition, the inhibition at 0.1 µM in assay [2] worked out at 101%.
On to `Fc1ccc(SCCN2CCN(c3cccc4c3OCCO4)CC2)cc1` [Compound 3b, 1-(2,3-Dihydro-benzo[1,4]dioxin-5-yl)-4-[2-(4-fluoro-phenylsulfanyl)-ethyl]-piperazine], for which the half-inhibitory concentration (IC50) in assay [1] stood at 4.3 nM; in assay [2], 97 nM.
Regarding `Fc1cc(Cl)c(OCCCCN2CCN(c3cccc4c3OCCO4)CC2)c(Cl)c1` [Compound 5bp, 1-[4-(2,6-Dichloro-4-fluoro-phenoxy)-butyl]-4-(2,3-dihydro-benzo[1,4]dioxin-5-yl)-piperazine], the results for the IC50 in assay [1] and in assay [2] were 6.2 nM and 4.8 nM, respectively.
The corresponding values for `Fc1cc(Cl)c(OCCCN2CCN(c3cccc4ccsc34)CC2)c(Cl)c1` [Compound 5au, 1-Benzo[b]thiophen-7-yl-4-[3-(2,6-dichloro-4-fluoro-phenoxy)-propyl]-piperazine] are 7.6 nM and 6.4 nM.
Turning to `Clc1cccc(Cl)c1SCCCN1CCN(c2cccc3c2OCCO3)CC1` [Compound 5aw, 1-[3-(2,6-Dichloro-phenylsulfanyl)-propyl]-4-(2,3-dihydro-benzo[1,4]dioxin-5-yl)-piperazine], the values for the IC50 in assay [1] and in assay [2] were 1.9 nM and 1.7 nM, respectively.
For `Cc1cc(F)ccc1OCCCN1CCN(c2cccc3c2OCCO3)CC1` [Compound 1e, 1-(2,3-Dihydro-benzo[1,4]dioxin-5-yl)-4-[3-(4-fluoro-2-methyl-phenoxy)-propyl]-piperazine], the IC50 in assay [1] came to 1.3 nM; in assay [2], 4.5 nM.
The corresponding values for `Clc1cccc(Cl)c1SCCN1CCN(c2cccc3c2OCCO3)CC1` [Compound 3d, 1-[2-(2,6-Dichloro-phenylsulfanyl)-ethyl]-4-(2,3-dihydro-benzo[1,4]dioxin-5-yl)-piperazine] are 11 nM and 31 nM.
For `CS(=O)(=O)c1cc(Cl)c(OCCCN2CCN(c3cccc4ccsc34)CC2)c(Cl)c1` [Compound 5ao, 1-Benzo[b]thiophen-7-yl-4-[3-(2,6-dichloro-4-methanesulfonyl-phenoxy)-propyl]-piperazine], the IC50 turned out to be 68 nM in assay [1] and 3.8 nM in assay [2].
